Results reported in PMC2656996, “Functional cell permeable motifs within medically relevant proteins” (Journal of Biotechnology, 2007).
Non-standard residues stand in square brackets, D forms with d. Residues, ends and D or L forms follow the SMILES beside them. N(NBD)Gly = O=C(O)CNc1ccc([N+](=O)[O-])c2nonc12

Assays:
[1] = test system: HeLa cells; assay: Internalisation of NBD-labelled peptides, flow cytometry with dithionite quench; format: cell-based, human; details: NBD-labelled peptide 10, 40 and 160 μM, 2 h at 37 °C, DMEM 10% FCS, FACS geometric mean fluorescence, dithionite-only background subtracted, average of three independent experiments
Protocol: (§1) HeLa or RAW 264.7 cells were cultured at 37 °C, 10% CO2, in Dulbecco's modified Eagle's medium (DMEM) (Invitrogen), containing 10% foetal calf serum (FCS, Harlan), 100 U/ml penicillin and 100 μg/ml streptomycin. Quantification of internalisation of NBD-labelled peptides was carried out according to the procedure described by [Drin et al. (2001)]. Briefly, cells were seeded in six-well plates (5 × 10^5 cells/well) and treated with 0–160 μM of peptide for 2 h at 37 °C. Cells were washed twice in PBS, harvested using a solution of Versene (1:500) (Invitrogen) and re-suspended in 0.5 ml (final volume) of ice-cold PBS. Cells were analysed by flow cytometry using a Becton Dickinson FACS Scan instrument and the geometric mean of fluorescence intensity was considered to represent the amount of cell-associated peptide. Following flow cytometry, 5 μl of freshly prepared dithionite stock solution (1 M Na2S2O4 in 1 M Tris–HCl (pH 10)) was added to cells maintained at 4 °C for 5 min and analysed again with flow cytometry to measure residual fluorescence. Fluorescence from cells treated with dithionite only was subtracted from the fluorescence of cell-associated or internalised peptides to infer background values.

[2] = test system: RAW 264.7 cells; assay: as above; format: cell-based, murine; details: increasing concentrations of NBD-labelled peptide, 2 h at 37 °C, DMEM 10% FCS, FACS, average of three independent experiments
Protocol: as §1

[3] = test system: RAW 264.7 cells; assay: Cell viability, CellTiter-Glo Luminescent Assay; format: cell-based, murine; details: RAW 264.7, 10, 40 and 160 μM peptide, incubation 2, 4, 8 and 18 h
Text: CellTiter-Glo Luminescent Assay (Promega) was utilised to determine viability of RAW 264.7 cells following treatment with peptides, according to the manufacturer's instructions.

Row | SMILES | Internalised peptide, mean cell fluorescence after sodium dithionite quencher [1] | Internalised peptide, mean cell fluorescence after sodium dithionite quencher [2] | Cellular viability [3]
1 | CSCC[C@H](NC(=O)[C@H](CCCCN)NC(=O)CNc1ccc([N+](=O)[O-])c2nonc12)C(=O)N[C@@H](C)C(=O)N[C@@H](CC(=O)O)C(=O)N[C@@H](Cc1c[nH]c2ccccc12)C(=O)N[C@@H](Cc1ccccc1)C(=O)N[C@@H](CCCNC(=N)N)C(=O)N[C@@H](CCC(N)=O)C(=O)N[C@H](C(=O)N[C@@H](CC(C)C)C(=O)N[C@@H](CC(C)C)C(=O)N[C@@H](C)C(=O)N[C@@H](C)C(=O)N1CCC[C@H]1C(=O)N[C@@H](C)C(=O)N[C@@H](C)C(=O)N[C@@H](C)C(=O)N1CCC[C@H]1C(=O)N[C@@H](CC(N)=O)C(=O)N[C@@H](CO)C(=O)N1CCC[C@H]1C(=O)N[C@@H](CCC(=O)O)C(=O)N[C@@H](CO)C(=O)N[C@H](C(N)=O)[C@@H](C)O)[C@@H](C)O [NBD-TIRAP^Ala] (H-[N(NBD)Gly]KMADWFRQTLLAAPAAAPNSPEST-NH2) | substantially less fluorescent | substantially less fluorescent | 
2 | C[C@H](NC(=O)[C@H](C)NC(=O)[C@H](CCC(N)=O)NC(=O)[C@H](C)NC(=O)[C@H](C)NC(=O)[C@H](CCCCN)NC(=O)[C@H](CCCCN)NC(=O)[C@H](CCCNC(=N)N)NC(=O)CNc1ccc([N+](=O)[O-])c2nonc12)C(=O)N[C@@H](C)C(=O)N1CCC[C@H]1C(=O)N1CCC[C@H]1C(=O)N[C@@H](CCC(N)=O)C(N)=O [TAT^Ala, reference compound] (H-[N(NBD)Gly]RKKAAQAAAPPQ-NH2) | very little fluorescence |  | 
3 | CC[C@H](C)[C@H](NC(=O)[C@H](C)NC(=O)CNC(=O)CNC(=O)[C@@H]1CCCN1C(=O)[C@@H](NC(=O)[C@H](C)NC(=O)[C@H](CC(=O)O)NC(=O)[C@H](CCCNC(=N)N)NC(=O)[C@H](CC(C)C)NC(=O)[C@H](CCC(N)=O)NC(=O)[C@H](CC(C)C)NC(=O)[C@@H](NC(=O)[C@H](CO)NC(=O)[C@H](CCC(=O)O)NC(=O)[C@@H]1CCCN1C(=O)[C@H](CO)NC(=O)[C@H](CC(N)=O)NC(=O)[C@@H]1CCCN1C(=O)[C@H](CCCNC(=N)N)NC(=O)[C@H](CCCCN)NC(=O)[C@H](CCCCN)NC(=O)[C@@H]1CCCN1C(=O)[C@H](CCCCN)NC(=O)[C@H](CCCCN)NC(=O)[C@H](CC(C)C)NC(=O)[C@H](CC(C)C)NC(=O)[C@@H](NC(=O)[C@H](CCC(N)=O)NC(=O)[C@H](CCCNC(=N)N)NC(=O)[C@H](Cc1ccccc1)NC(=O)[C@H](Cc1c[nH]c2ccccc12)NC(=O)[C@H](CC(=O)O)NC(=O)[C@H](C)NC(=O)[C@H](CCSC)NC(=O)[C@H](CCCCN)NC(=O)CN)[C@@H](C)O)[C@@H](C)O)[C@@H](C)O)C(=O)N[C@H](C(=O)N[C@@H](CO)C(N)=O)C(C)C [TBX2] (H-GKMADWFRQTLLKKPKKRPNSPESTLQLRDATPGGAIVS-NH2) |  |  | no significant reduction in cellular viability
4 | CSCC[C@H](NC(=O)[C@H](CCCCN)NC(=O)CNc1ccc([N+](=O)[O-])c2nonc12)C(=O)N[C@@H](C)C(=O)N[C@@H](CC(=O)O)C(=O)N[C@@H](Cc1c[nH]c2ccccc12)C(=O)N[C@@H](Cc1ccccc1)C(=O)N[C@@H](CCCNC(=N)N)C(=O)N[C@@H](CCC(N)=O)C(=O)N[C@H](C(=O)N[C@@H](CC(C)C)C(=O)N[C@@H](CC(C)C)C(=O)N[C@@H](CCCCN)C(=O)N[C@@H](CCCCN)C(=O)N1CCC[C@H]1C(=O)N[C@@H](CCCCN)C(=O)N[C@@H](CCCCN)C(=O)N[C@@H](CCCNC(=N)N)C(=O)N1CCC[C@H]1C(=O)N[C@@H](CC(N)=O)C(=O)N[C@@H](CO)C(=O)N1CCC[C@H]1C(=O)N[C@@H](CCC(=O)O)C(=O)N[C@@H](CO)C(=O)N[C@H](C(N)=O)[C@@H](C)O)[C@@H](C)O [TIRAP] (H-[N(NBD)Gly]KMADWFRQTLLKKPKKRPNSPEST-NH2) | cell permeable properties | cell permeable properties | 
